Our source for the IC50 values is patent US12516046B2, “2-oxo-oxazolidine-5-carboxamides as NAV1.8 inhibitors” (Merck Sharp & Dohme LLC, priority 2020, dated 2026).

Structures are written as SMILES.

human Nav1.8, sequence (Q9Y5Y9 whole entry): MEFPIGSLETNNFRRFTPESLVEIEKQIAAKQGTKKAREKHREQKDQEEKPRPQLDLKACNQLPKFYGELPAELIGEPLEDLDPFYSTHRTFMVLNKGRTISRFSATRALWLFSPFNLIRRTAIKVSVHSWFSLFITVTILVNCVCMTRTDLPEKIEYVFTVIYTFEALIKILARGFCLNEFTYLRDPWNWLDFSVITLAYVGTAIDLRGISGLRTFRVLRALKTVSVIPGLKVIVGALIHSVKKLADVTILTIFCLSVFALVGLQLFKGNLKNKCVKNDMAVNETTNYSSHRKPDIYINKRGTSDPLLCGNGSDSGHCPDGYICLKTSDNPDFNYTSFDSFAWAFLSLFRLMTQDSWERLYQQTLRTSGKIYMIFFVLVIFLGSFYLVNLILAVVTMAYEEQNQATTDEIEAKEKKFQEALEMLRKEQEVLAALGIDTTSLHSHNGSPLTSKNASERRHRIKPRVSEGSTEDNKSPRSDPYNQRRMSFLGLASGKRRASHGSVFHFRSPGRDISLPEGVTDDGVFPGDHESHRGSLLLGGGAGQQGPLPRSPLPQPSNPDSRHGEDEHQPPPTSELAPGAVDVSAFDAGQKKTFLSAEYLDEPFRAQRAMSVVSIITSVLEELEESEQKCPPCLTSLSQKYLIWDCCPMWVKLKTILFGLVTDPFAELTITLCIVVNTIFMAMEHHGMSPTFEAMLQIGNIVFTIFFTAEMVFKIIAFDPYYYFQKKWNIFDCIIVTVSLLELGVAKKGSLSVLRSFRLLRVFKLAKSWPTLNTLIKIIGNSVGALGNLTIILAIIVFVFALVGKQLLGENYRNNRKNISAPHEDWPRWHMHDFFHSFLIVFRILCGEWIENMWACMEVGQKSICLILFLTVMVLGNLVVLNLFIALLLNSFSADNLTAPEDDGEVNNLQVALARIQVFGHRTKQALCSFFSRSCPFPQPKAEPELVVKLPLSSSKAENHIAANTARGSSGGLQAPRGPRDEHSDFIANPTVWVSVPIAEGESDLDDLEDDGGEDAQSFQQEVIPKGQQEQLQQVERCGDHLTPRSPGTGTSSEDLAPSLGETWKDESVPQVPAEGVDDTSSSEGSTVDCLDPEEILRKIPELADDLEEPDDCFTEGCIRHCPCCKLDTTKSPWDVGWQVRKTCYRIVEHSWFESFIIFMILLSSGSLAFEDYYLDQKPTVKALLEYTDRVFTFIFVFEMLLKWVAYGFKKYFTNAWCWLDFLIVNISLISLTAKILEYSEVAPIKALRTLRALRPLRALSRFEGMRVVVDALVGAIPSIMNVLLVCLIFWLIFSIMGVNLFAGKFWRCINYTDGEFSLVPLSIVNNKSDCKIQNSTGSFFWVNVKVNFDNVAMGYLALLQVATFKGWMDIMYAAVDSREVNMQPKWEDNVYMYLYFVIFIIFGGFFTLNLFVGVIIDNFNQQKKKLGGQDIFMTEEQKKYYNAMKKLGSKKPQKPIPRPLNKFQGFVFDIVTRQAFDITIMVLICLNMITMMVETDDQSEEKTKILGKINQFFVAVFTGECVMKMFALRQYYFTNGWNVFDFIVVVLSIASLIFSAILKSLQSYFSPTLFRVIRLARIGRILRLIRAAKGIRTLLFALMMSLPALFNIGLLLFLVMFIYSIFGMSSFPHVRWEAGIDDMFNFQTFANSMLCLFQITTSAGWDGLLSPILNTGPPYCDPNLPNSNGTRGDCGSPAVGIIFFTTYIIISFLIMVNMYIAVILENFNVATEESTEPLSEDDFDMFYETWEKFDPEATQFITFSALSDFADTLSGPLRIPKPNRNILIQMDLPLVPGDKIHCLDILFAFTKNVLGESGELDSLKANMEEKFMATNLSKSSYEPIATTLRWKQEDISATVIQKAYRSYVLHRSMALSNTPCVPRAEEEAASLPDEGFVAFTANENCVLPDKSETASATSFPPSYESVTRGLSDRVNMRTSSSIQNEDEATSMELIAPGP

The test addresses human Nav1.8 (Homo sapiens (Human), UniProt Q9Y5Y9). The test can be described thus: Nav1.8 Qube® Assay (automated 384-well patch-clamp). Format: cell-based. Conditions: human Nav1.8 channels stably expressed in HEK 293 cells. The text has this: Qube® Assay Experimental Procedure
In general, IC50 refers to the concentration needed to halve the response being measured. Turning to `O=C1NC[C@@H](C(=O)NC(c2ccc(F)c(Cl)c2)C2CCN(CC(F)(F)F)C2)O1` (single isomer, unassigned) [Example 43A, (S)-N-((R or S)-(3-chloro-4-fluorophenyl)((R or S)-1-(2,2,2-trifluoroethyl)pyrrolidin-3-yl)methyl)-2-oxooxazolidine-5-carboxamide], the IC50 worked out at 1760 nM.
Take `O=C1NC[C@@H](C(=O)NC(c2ccc(F)c(Cl)c2)C2CCN(CC(F)(F)F)C2)O1` (single isomer, unassigned) [Example 43B, (S)-N-((R or S)-(3-chloro-4-fluorophenyl)((R or S)-1-(2,2,2-trifluoroethyl)pyrrolidin-3-yl)methyl)-2-oxooxazolidine-5-carboxamide]: the IC50 was 807 nM.
In the case of `O=C1NC[C@@H](C(=O)NC(c2ccc(F)c(Cl)c2)c2csc(C(F)(F)F)n2)O1` (single isomer, unassigned) [Example 44A, (S)—N—((R or S)-(3-chloro-4-fluorophenyl)(2-(trifluoromethyl)thiazol-4-yl)methyl)-2-oxooxazolidine-5-carboxamide] it was 4.6 nM; in that of `O=C1NC[C@@H](C(=O)NC(c2ccc(F)c(Cl)c2)c2csc(C(F)(F)F)n2)O1` (single isomer, unassigned) [Example 44B, (S)—N—((R or S)-(3-chloro-4-fluorophenyl)(2-(trifluoro-methyl)thiazol-4-yl)methyl)-2-oxooxazolidine-5-carboxamide], 17 nM.
In the case of `Cc1cc(C(NC(=O)[C@@H]2CNC(=O)O2)c2ccc(Cl)cc2)ccc1Cl` (single isomer, unassigned) [Example 46A, (S)-N-((R or S)-(4-chloro-3-methylphenyl)(4-chlorophenyl)methyl)-2-oxooxazolidine-5-carboxamide] it was 0.6 nM; in that of `Cc1cc(C(NC(=O)[C@@H]2CNC(=O)O2)c2ccc(Cl)cc2)ccc1Cl` (single isomer, unassigned) [Example 46B, (S)-N-((R or S)-(4-chloro-3-methylphenyl)(4-chlorophenyl)methyl)-2-oxooxazolidine-5-carboxamide], 1.8 nM.
In the case of `O=C1NC[C@@H](C(=O)NC(c2ccc(Cl)cc2)c2ccc(Cl)cc2OC(F)(F)F)O1` (single isomer, unassigned) [Example 47A, (S)-N-((R or S)-(4-chloro-2-(trifluoromethoxy)phenyl)(4-chlorophenyl)methyl)-2-oxooxazolidine-5-carboxamide] it was 1.6 nM; in that of `O=C1NC[C@@H](C(=O)NC(c2ccc(Cl)cc2)c2ccc(Cl)cc2OC(F)(F)F)O1` (single isomer, unassigned) [Example 47B, (S)-N-((R or S)-(4-chloro-2-(trifluoromethoxy)phenyl)(4-chlorophenyl)-methyl)-2-oxooxazolidine-5-carboxamide], 17 nM; in that of `O=C1NC[C@@H](C(=O)NC(c2ccc(OC(F)F)cc2)c2ccc(F)c(Cl)c2)O1` (single isomer, unassigned) [Example 48A, (S)-N-((R or S)-(3-chloro-4-fluorophenyl)(4-(difluoromethoxy)phenyl)methyl)-2-oxooxazolidine-5-carboxamide], 2.7 nM.
`O=C1NC[C@@H](C(=O)NC(c2ccc(OC(F)F)cc2)c2ccc(F)c(Cl)c2)O1` (single isomer, unassigned) [Example 48B, (S)-N-((R or S)-(3-chloro-4-fluorophenyl)(4-(difluoromethoxy)phenyl)methyl)-2-oxooxazolidine-5-carboxamide]: the half-inhibitory concentration (IC50) came to 6.8 nM.
`O=C1NC[C@@H](C(=O)NC(c2ccc(F)c(Cl)c2)c2cccc(C(F)(F)F)n2)O1` (single isomer, unassigned) [Example 49A, (S)-N-((R or S)-(3-chloro-4-fluorophenyl)(6-(trifluoromethyl)pyridin-2-yl)methyl)-2-oxooxazolidine-5-carboxamide] displayed a half-maximal inhibitory concentration (IC50) of 8.8 nM.
Take `O=C1NC[C@@H](C(=O)NC(c2ccc(F)c(Cl)c2)c2cccc(C(F)(F)F)n2)O1` (single isomer, unassigned) [Example 49B, (S)-N-((R or S)-(3-chloro-4-fluorophenyl)(6-(trifluoromethyl)pyridin-2-yl)methyl)-2-oxooxazolidine-5-carboxamide]: the IC50 amounted to 54 nM.
Compound `O=C1NC[C@@H](C(=O)NC(c2ccc(OCC(F)(F)F)nc2)c2ccc(F)c(Cl)c2F)O1` (single isomer, unassigned) [Example 50A, (S)—N—((R or S)-(3-chloro-2,4-difluorophenyl)(6-(2,2,2-trifluoroethoxy)pyridin-3-yl)methyl)-2-oxo-oxazolidine-5-carboxamide] had a 50% inhibitory concentration (IC50) of 1.6 nM.
In turn, `O=C1NC[C@@H](C(=O)NC(c2ccc(OCC(F)(F)F)nc2)c2ccc(F)c(Cl)c2F)O1` (single isomer, unassigned) [Example 50B, (S)—N—((R or S)-(3-chloro-2,4-difluorophenyl)(6-(2,2,2-trifluoroethoxy)pyridin-3-yl)methyl)-2-oxooxazolidine-5-carboxamide] registered a half-inhibitory concentration (IC50) of 48 nM.
For the compound `O=C1NC[C@@H](C(=O)NC(c2ccc(OC(F)(F)F)c(Cl)c2)c2coc(C(F)(F)F)n2)O1` (single isomer, unassigned) [Example 51A, (S)-N-((R or S)-(3-chloro-4-(trifluoro-methoxy)phenyl)(2-(trifluoromethyl)oxazol-4-yl)methyl)-2-oxooxazolidine-5-carboxamide], the 50% inhibitory concentration (IC50) worked out at 5.3 nM. This IC50 lies about 9.1-fold lower than the previous one.
Turning to `O=C1NC[C@@H](C(=O)NC(c2ccc(OC(F)(F)F)c(Cl)c2)c2coc(C(F)(F)F)n2)O1` (single isomer, unassigned) [Example 51B, (S)-N-((R or S)-(3-chloro-4-(trifluoro-methoxy)phenyl)(2-(trifluoromethyl)oxazol-4-yl)methyl)-2-oxooxazolidine-5-carboxamide], the IC50 worked out at 3.7 nM. This IC50 and that of the compound before are within 1.5-fold of each other.
In the case of `O=C1NC[C@@H](C(=O)NC(c2ccc(OC(F)(F)F)c(Cl)c2)c2ccnc(C(F)(F)F)n2)O1` (single isomer, unassigned) [Example 52A, (S)-N-((R or S)-(3-chloro-4-(trifluoromethoxy)phenyl)(2-(trifluoro-methyl)pyrimidin-4-yl)methyl)-2-oxooxazolidine-5-carboxamide] it was 7.9 nM.
In the case of `O=C1NC[C@@H](C(=O)NC(c2ccc(OC(F)(F)F)c(Cl)c2)c2ccnc(C(F)(F)F)n2)O1` (single isomer, unassigned) [Example 52B, (S)-N-((R or S)-(3-chloro-4-(trifluoromethoxy)phenyl)(2-(trifluoro-methyl)pyrimidin-4-yl)methyl)-2-oxooxazolidine-5-carboxamide] it was 13 nM; in that of `O=C1NC[C@@H](C(=O)NC(c2ccc(OC(F)(F)F)c(Cl)c2)c2cnn(C(F)(F)F)c2)O1` (single isomer, unassigned) [Example 53A, (S)-N-((R or S)-(3-chloro-4-(trifluoro-methoxy)phenyl)(1-(trifluoromethyl)-1H-pyrazol-4-yl)methyl)-2-oxooxazolidine-5-carboxamide], 22 nM; in that of `O=C1NC[C@@H](C(=O)NC(c2ccc(OC(F)(F)F)c(Cl)c2)c2cnn(C(F)(F)F)c2)O1` (single isomer, unassigned) [Example 53B, (S)-N-((R or S)-(3-chloro-4-(trifluoro-methoxy)phenyl)(1-(trifluoromethyl)-1H-pyrazol-4-yl)methyl)-2-oxooxazolidine-5-carboxamide], 1.2 nM.
